Reference: US20090030066A1, “SMALL MOLECULES FOR THE PROTECTION OF PANCREATIC CELLS” (priority 2007, published 2009)

Legend:
[1] = tested on: human bone marrow-derived mesenchymal stem cells (MSC); assay: Expansion (cell count) of human bone marrow-derived mesenchymal stem cells; type: cell-based; settings: for Cell number per culture: Table 4 experiment; for Cell number/culture: Table 5 experiment
From the text: (§1) Bone marrow aspirates were taken from normal adult donors signed after informed consent according to a protocol approved by the appropriate Ethics Committee. For the preparation of bone marrow mesenchymal stem cells, essentially a widely used technique was used as described earlier by others [Pittenger, M. F., Mackay, A. M., Beck, S. C., Jaiswal, R. K., Douglas, R., Mosca, J. D., Moorman, M. A., Simonetti, D. W., Craig, S, and Marshak, D. R., Multilineage potential of adult human mesenchymal stem cells (1999) Science 284, 143-147]. Briefly, nucleated cells were isolated with a pre-prepared commercial density gradient (Lymphoprep, Nycomed, Pharma, Oslo, Norway) and resuspended in Dulbecco's modified Eagle's medium (DMEM) (GIBCO, Grand Island, N.Y.) supplemented with 10% fetal calf serum (FCS), 50 U/ml of penicillin, and 50 μg/ml of streptomycin (GIBCO). All nucleated cells were plated in 25-cm^2 flasks (BD Falcon, Bedford, Mass.) at 37° C. in humidified atmosphere containing 5% CO2. After 24 hours, nonadherent cells were removed and cryopreserved in liquid nitrogen until use. The remaining adherent cells were thoroughly washed with Hanks balanced salt solution (HBSS) (GIBCO). Fresh complete culture medium was added and replaced every 3 or 4 days (twice a week). When cells grew to about 80% confluence, they were suspended and harvested by incubating with a ready-made solution containing 0.25% trypsin and 1 mM EDTA (Sigma-Aldrich, St. Louis, Mo.) for 5 minutes at 37° C.; this cell suspension is designated as passage 1. These cells were further expanded with 1:3-1:5 splitting in 175-cm^2 flasks (BD Falcon).
The total numbers of nucleated and viable cells were determined with a hemocytometer, using Turck's solution and trypan blue stain, respectively. The morphology of MSC was examined every week under an inverted microscope (Olympos CK2, Tokyo, Japan) to verify that cells retained their structural characteristics. In the two experiments described below, MSCs were split into 24-well “F-bottom” plates at passage 5.
In both experiments, about 80% confluent cells were split into 24-well “F-bottom” plates. Then after 24 hours in 10% serum containing medium (at about 30-35% confluence), the medium was replaced for either serum-free medium or 2% or 10 fetal calf serum containing medium. […] In both experiments, the data are the mean ±S.D. of 5 incubations.

[2] = tested on: human mesenchymal stem cells; assay: Survival/attachment of human mesenchymal stem cells, compound present during plating; type: cell-based; settings: 5-10 μM, 10% or 2% serum, 24 h
From the text: as §1, with “After 24 hours, nonadherent cells were removed and cryopreserved in liquid nitrogen until use. The remaining adherent cells were thoroughly washed with Hanks balanced salt solution (HBSS) (GIBCO). Fresh complete culture medium was added and replaced every 3 or 4 days (twice a week).” left out, “These cells were further expanded with 1:3-1:5 splitting in 175-cm^2 flasks (BD Falcon).” left out
The total numbers of nucleated and viable cells were determined with a hemocytometer, using Turck's solution and trypan blue stain, respectively. […]

STZ-treated mice = assay: STZ-treated mice, second experiment: body weight to day 80 and survival; type: in vivo; settings: for survivors: 80th day
From the text: In a second similar experiment performed with 6 mice in each group, the changes in body weight were followed for up to 80 days (when the last STZ-treated mouse died), and survival was followed for up to 100 days.
For the body weight (on the 80th day) and survival the following values were obtained: Untreated (6 survivors), 37.7 g; STZ-treated (one last survivor died on day 80, others survived for 22, 25, 27, 60, 75 days), 26.0 g; CCompound1-treated (6 survivors), 36.0 g; STZ+CCompound1 treated (6 survivors), 33.4 g; STZ+CCompound3-treated (5 survivors; one mouse died on day 78), 32.5 g. At the start of the experiment (day 0), the average body weight ranged from 28.6 to 29.8 g. Accordingly, by day 80, STZ-treated animals that were also treated with CCompound1 and CCompound3 gained about 50% of the weight gained by the untreated animals.

[3] = STZ + compound, 6 mice per group

Cc1c(OCC(O)C[N+](C)(C)C)cc2c(=O)c3ccccc3sc2c1C.[Cl-] (stereo not shown) [CCcompound1, [3-(3,4-Dimethyl-9-oxo-9H-thioxanthen-2-yloxy)-2-hydroxypropyl]trimethyl-ammonium chloride]
effect on MSC proliferation ([1]; 10 μM, 10% serum): enhanced cell proliferation | effect on expansion of stem cells ([1]; 5-10 μM, absence and presence of 2% serum, between days 3 and 6): significantly increased the expansion of stem cells | effect on MSC cell numbers ([1]; 5-10 μM, absence or presence of 2% serum, first 3 days): slightly enhance cell numbers | Cell number per culture ([1]; 0% serum, day 2, 5 μM): 6.4 ± 2.0 ×10^−3 | Cell number per culture ([1]; 0% serum, day 2, 10 μM): 5.9 ± 1.9 ×10^−3 | Cell number per culture ([1]; 0% serum, day 2, 50 μM): 4.0 ± 1.6 ×10^−3 | Cell number per culture ([1]; 0% serum, day 4, 5 μM): 8.1 ± 2.1 ×10^−3 | Cell number per culture ([1]; 0% serum, day 4, 10 μM): 6.8 ± 2.4 ×10^−3 | Cell number per culture ([1]; 0% serum, day 4, 50 μM): 3.4 ± 1.1 ×10^−3 | Cell number per culture ([1]; 0% serum, day 6, 5 μM): 12.5 ± 1.6 ×10^−3 | Cell number per culture ([1]; 0% serum, day 6, 10 μM): 10.2 ± 1.4 ×10^−3 | Cell number per culture ([1]; 0% serum, day 6, 50 μM): 3.8 ± 1.2 ×10^−3 | Cell number per culture ([1]; 2% serum, day 2, 5 μM): 7.1 ± 2.7 ×10^−3 | Cell number per culture ([1]; 2% serum, day 2, 10 μM): 6.3 ± 1.6 ×10^−3 | Cell number per culture ([1]; 2% serum, day 2, 50 μM): 3.9 ± 1.1 ×10^−3 | Cell number per culture ([1]; 2% serum, day 4, 5 μM): 11.6 ± 2.4 ×10^−3 | Cell number per culture ([1]; 2% serum, day 4, 10 μM): 9.2 ± 2.3 ×10^−3 | Cell number per culture ([1]; 2% serum, day 4, 50 μM): 5.2 ± 1.6 ×10^−3 | Cell number per culture ([1]; 2% serum, day 6, 5 μM): 20.8 ± 2.5 ×10^−3 | Cell number per culture ([1]; 2% serum, day 6, 10 μM): 17.4 ± 2.0 ×10^−3 | Cell number per culture ([1]; 2% serum, day 6, 50 μM): 7.0 ± 3.3 ×10^−3 | Cell number/culture ([1]; 2.0 μM, 0% serum, Day 3): 4.7 ± 3.5 ×10^−3 | Cell number/culture ([1]; 2.0 μM, 0% serum, Day 6): 6.2 ± 1.7 ×10^−3 | Cell number/culture ([1]; 2.0 μM, 2% serum, Day 3): 4.9 ± 2.6 ×10^−3 | Cell number/culture ([1]; 2.0 μM, 2% serum, Day 6): 16.4 ± 2.5 ×10^−3 | Cell number/culture ([1]; 2.0 μM, 10% serum, Day 3): 5.9 ± 1.7 ×10^−3 | Cell number/culture ([1]; 2.0 μM, 10% serum, Day 6): 33.3 ± 5.2 ×10^−3 | Cell number/culture ([1]; 5.0 μM, 0% serum, Day 3): 5.9 ± 2.1 ×10^−3 | Cell number/culture ([1]; 5.0 μM, 0% serum, Day 6): 10.3 ± 2.5 ×10^−3 | Cell number/culture ([1]; 5.0 μM, 2% serum, Day 3): 7.2 ± 1.3 ×10^−3 | Cell number/culture ([1]; 5.0 μM, 2% serum, Day 6): 18.3 ± 4.8 ×10^−3 | Cell number/culture ([1]; 5.0 μM, 10% serum, Day 3): 6.2 ± 2.6 ×10^−3 | Cell number/culture ([1]; 5.0 μM, 10% serum, Day 6): 36.4 ± 5.2 ×10^−3 | Cell number/culture ([1]; 10.0 μM, 0% serum, Day 3): 6.3 ± 2.2 ×10^−3 | Cell number/culture ([1]; 10.0 μM, 0% serum, Day 6): 13.3 ± 3.2 ×10^−3 | Cell number/culture ([1]; 10.0 μM, 2% serum, Day 3): 5.6 ± 1.6 ×10^−3 | Cell number/culture ([1]; 10.0 μM, 2% serum, Day 6): 19.0 ± 3.8 ×10^−3 | Cell number/culture ([1]; 10.0 μM, 10% serum, Day 3): 5.1 ± 1.7 ×10^−3 | Cell number/culture ([1]; 10.0 μM, 10% serum, Day 6): 39.1 ± 4.1 ×10^−3 | Cell number/culture ([1]; 25.0 μM, 0% serum, Day 3): 4.4 ± 1.7 ×10^−3 | Cell number/culture ([1]; 25.0 μM, 0% serum, Day 6): 6.4 ± 3.1 ×10^−3 | Cell number/culture ([1]; 25.0 μM, 2% serum, Day 3): 4.7 ± 2.6 ×10^−3 | Cell number/culture ([1]; 25.0 μM, 2% serum, Day 6): 12.9 ± 4.9 ×10^−3 | Cell number/culture ([1]; 25.0 μM, 10% serum, Day 3): 5.2 ± 2.1 ×10^−3 | Cell number/culture ([1]; 25.0 μM, 10% serum, Day 6): 33.5 ± 5.3 ×10^−3 | Cell number/culture ([1]; 100.0 μM, 0% serum, Day 3): 1.1 ± 1.6 ×10^−3 | Cell number/culture ([1]; 100.0 μM, 0% serum, Day 6): 1.3 ± 1.1 ×10^−3 | Cell number/culture ([1]; 100.0 μM, 2% serum, Day 3): 1.5 ± 1.1 ×10^−3 | Cell number/culture ([1]; 100.0 μM, 2% serum, Day 6): 5.8 ± 3.2 ×10^−3 | Cell number/culture ([1]; 100.0 μM, 10% serum, Day 3): 4.4 ± 2.5 ×10^−3 | Cell number/culture ([1]; 100.0 μM, 10% serum, Day 6): 14.8 ± 3.1 ×10^−3 | decrease of the effects on cell survival and proliferation when added late ([1]; compound added 6 hours after medium change, data not shown): 50-70% | effect on number of attached cells [2]: enhanced the number of attached cells | weight gained by day 80 relative to the weight gained by the untreated animals (STZ-treated mice; STZ + compound): about 50% | body weight on the 80th day (STZ-treated mice; [3]): 33.4 g | survivors (STZ-treated mice; [3]): 6 | body weight on the 80th day (STZ-treated mice; compound alone, no STZ, 6 mice): 36.0 g | survivors (STZ-treated mice; compound alone, no STZ, 6 mice per group): 6
